Data reported in patent publication US20260284048A1, “INHIBITOR OF MEGAKARYOCYTE DIFFERENTIATION AND MATURATION” (OTSUKA PHARMACEUTICAL CO., LTD., priority 2023, published 2026).

Experiments:
Type in all cases: cell-based
[1] = tested on: Bone marrow-derived CD34-positive cells (CD41-positive megakaryocytes); assay: Inhibition of differentiation from CD34-positive cells toward megakaryocytes (HemaTox Megakaryocyte Kit, flow cytometry); details: 240 h, cultured 10 days, three donors
Description: (§1) It was studied whether Compound 1 inhibits the differentiation from CD34-positive cells toward megakaryocytes. Bone marrow-derived CD34-positive cells were cultured for 10 days in the presence and absence of Compound 1 in megakaryocyte differentiation medium (HemaTox™ Megakaryocyte Kit, STEMCELL™ Technologies) according to the kit's instruction. The number of the CD41-positive megakaryocytes was counted by flow cytometry and the cell viability relative to the untreated cell group was calculated. The test was conducted three times using CD34-positive cells derived from different donors, and the cell viability was determined with the control as 100%.

[2] = tested on: Bone marrow-derived CD34-positive cells (CD13-positive and CD15-positive myeloid cells); assay: Differentiation from CD34-positive cells toward myeloid cells (HemaTox Myeloid Kit, flow cytometry); details: cultured 7 days, two donors, FIG. 5
Description: as §1, with “toward myeloid cells.” for “toward megakaryocytes.”, “for 7” for “for 10”, “in myeloid” for “in the presence and absence of Compound 1 in megakaryocyte”, “(HemaTox™ Myeloid” for “(HemaTox™ Megakaryocyte”, “the CD13-positive and CD15-positive myeloid cells” for “the CD41-positive megakaryocytes”, “conducted twice” for “conducted three times”

PDE3A and SLFN12 = assay: Complex formation of PDE3A and SLFN12 (immunoprecipitation using anti-PDE3A antibody); details: PFSK-1 and HeLa cell lines, 1 μmol/L, 16 hours, FIG. 1
Description: In order to examine whether Compound 1 forms a complex between PDE3A and SLFN12, a binding confirmation experiment using immunoprecipitation was performed. PFSK-1 and HeLa which are cell lines expressing PDE3A and SLFN12 were treated with Compound 1 (1 μmol/L) for 16 hours, and then immunoprecipitated using anti-PDE3A antibody.

[3] = tested on: Bone marrow-derived CD34-positive cells (CD71-positive and CD235-positive erythroid cells); assay: Differentiation from CD34-positive cells toward erythroblasts (HemaTox Erythroid Kit, flow cytometry); details: concentrations of 100 nmol/L or lower, cultured 7 days, two donors, FIG. 4
Description: It was studied whether Compound 1 inhibits the differentiation from CD34-positive cells toward erythroblasts. Bone marrow-derived CD34-positive cells were cultured for 7 days in erythroid differentiation medium (HemaTox™ Erythroid Kit, STEMCELL™ Technologies) according to the kit's instruction. The number of the CD71-positive and CD235-positive erythroid cells were counted by flow cytometry and the cell viability relative to the untreated cell group was calculated. The test was conducted twice using CD34-positive cells derived from different donors, and the cell viability was determined with the control as 100%.

SLFN12 protein = assay: Increase of SLFN12 protein (Western blot analysis); details: 1 μmol/L, 16 hours, FIG. 2
Description: In order to examine the effect of Compound 1 on the protein level of SLFN12, Western blot analysis was performed. PFSK-1, HeLa, or U-87 MG cell lines were treated with Compound 1 (1 μmol/L) for 16 hours, and SLFN12 protein in each test sample was detected.

SMILES: C[C@@H]1CC(=O)NN=C1c1ccc(OCC(C)(C)O)c(F)c1F [Compound 1, (R)-6-(2,3-difluoro-4-(2-hydroxy-2-methylpropoxy)phenyl)-5-methyl-4,5-dihydropyridazin-3(2H)-one]
- minimal effective concentration ([1]; FIG. 3, read-out: concentration that significantly decreased the number of CD41-positive megakaryocytes): ≥ 0.003 µM
- IC50 ([1]; control as 100%, 95% confidence interval 10.3-23.7 nmol/L, read-out: 50% inhibitory concentration (IC50), number of CD41-positive megakaryocytes): 17 nM
- effect on differentiation from hematopoietic stem cells toward myeloid cells ([2]; 30 nmol/L): inhibited
- effect on differentiation from hematopoietic stem cells toward myeloid cells ([2]; 100 nmol/L): no significant difference
- concentration dependence of the effect on differentiation toward myeloid cells [2]: no concentration-dependent inhibitory effect
- coprecipitation of SLFN12 with PDE3A (complex formation) (PDE3A and SLFN12): coprecipitation with SLFN12 was confirmed
- effect on differentiation from hematopoietic stem cells toward erythroid cells [3]: did not affect
- SLFN12 protein level compared to untreated (SLFN12 protein; PFSK-1 or HeLa (highly expresses PDE3A)): increased SLFN12 protein levels were observed
- SLFN12 protein level compared to untreated (SLFN12 protein; U-87 MG (hardly expresses PDE3A)): no significant, Compound 1-dependent increase in SLFN12 protein level was observed
